This passage reports IC50 results from US12398154B2, “Azaquinazoline pan-KRas inhibitors” (Mirati Therapeutics, Inc., priority 2020, dated 2025).

One test has as its target KRas WT (Homo sapiens, UniProt P01116). Nature of the test: biochemical.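 Further: binding to KRas read as TR-FRET displacement after a one-hour room-temperature incubation, IC50 derived from percent-of-control values.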
Another test concerns the target KRas G12C (Homo sapiens, UniProt P01116, G12C). The experiment in a line: biochemical.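 Further: binding to KRas assessed by TR-FRET displacement after one hour incubation at room temperature, potency fitted from percent-of-control values.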
The target of a further test is KRas G12R (Homo sapiens, UniProt P01116, G12R). The experiment in a line: biochemical.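 Further: TR-FRET displacement assay of compound binding to KRas, read after one hour at room temperature, potency from a four-parameter fit of percent-of-control values.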
Another test deals with KRas G12S (Homo sapiens, UniProt P01116, G12S). Nature of the test: biochemical.
In a further test the target is KRas G12A (Homo sapiens, UniProt P01116, G12A). The experiment in a line: biochemical.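 Further: binding to KRas measured by TR-FRET displacement after one hour at room temperature, IC50 from a four-parameter fit of percent-of-control values.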
A further test addresses KRas G12V (Homo sapiens, UniProt P01116, G12V). The experiment in a line: biochemical.
In the next test the target is KRas G12D (Homo sapiens, UniProt P01116, G12D). The experiment in a line: biochemical.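 Further: TR-FRET displacement binding assay on KRas, read after a one-hour incubation at room temperature, IC50 fitted from percent-of-control values.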
The subject of a further test is pERK in PSN1 cells. The experiment in a line: Inhibition of KRas phosphorylation of ERK (Cisbio HTRF pERK assay). The following applies: Homo sapiens, PSN1, 3 h, read-out: Inhibition (HTRF IC50) of KRas-mediated Phosphorylation of ERK, PSN1.
The subject of the next test is pERK in MKN1 cells. The test is described as above. The following applies: Homo sapiens, MKN-1, 3 h, read-out: Inhibition (HTRF IC50) of KRas-mediated Phosphorylation of ERK, MKN1.
For another test, the system named is pERK in ASPC1 cells. Described as above. The following applies: Homo sapiens, ASPC1, read-out: Inhibition (HTRF IC50) of KRas-mediated Phosphorylation of ERK, AsPC-1. (TR-FRET usually uses a lanthanide donor and a delayed reading to cut background.)

KRas G12D, sequence (P01116 1-169 isoform P01116-2 G12D): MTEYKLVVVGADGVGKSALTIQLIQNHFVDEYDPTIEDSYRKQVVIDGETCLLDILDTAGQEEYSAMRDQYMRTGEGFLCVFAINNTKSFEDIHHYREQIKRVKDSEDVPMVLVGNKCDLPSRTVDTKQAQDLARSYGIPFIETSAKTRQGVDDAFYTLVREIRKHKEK
KRas G12S, sequence (P01116 1-169 isoform P01116-2 G12S): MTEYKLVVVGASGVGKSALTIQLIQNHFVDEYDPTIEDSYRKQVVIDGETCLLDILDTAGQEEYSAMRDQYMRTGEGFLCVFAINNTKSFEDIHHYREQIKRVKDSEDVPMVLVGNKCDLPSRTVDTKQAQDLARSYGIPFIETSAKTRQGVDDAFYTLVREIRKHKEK
KRas G12R, sequence (P01116 1-169 isoform P01116-2 G12R): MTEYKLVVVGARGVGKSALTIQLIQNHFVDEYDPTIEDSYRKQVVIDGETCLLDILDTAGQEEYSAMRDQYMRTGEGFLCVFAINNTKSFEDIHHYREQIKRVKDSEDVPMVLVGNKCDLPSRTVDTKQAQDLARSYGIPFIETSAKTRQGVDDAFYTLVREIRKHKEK
KRas G12V, sequence (P01116 1-169 isoform P01116-2 G12V): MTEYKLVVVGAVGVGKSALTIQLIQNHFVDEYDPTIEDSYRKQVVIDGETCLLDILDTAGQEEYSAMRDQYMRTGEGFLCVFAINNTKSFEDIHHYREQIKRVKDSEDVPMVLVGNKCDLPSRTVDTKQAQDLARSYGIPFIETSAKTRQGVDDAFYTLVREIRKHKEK
KRas WT, sequence (P01116 1-169 isoform P01116-2): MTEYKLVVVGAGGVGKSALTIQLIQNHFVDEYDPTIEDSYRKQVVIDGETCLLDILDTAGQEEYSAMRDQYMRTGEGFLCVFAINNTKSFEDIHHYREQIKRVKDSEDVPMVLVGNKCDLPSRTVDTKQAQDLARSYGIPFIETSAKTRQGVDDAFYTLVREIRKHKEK
KRas G12A, sequence (P01116 1-169 isoform P01116-2 G12A): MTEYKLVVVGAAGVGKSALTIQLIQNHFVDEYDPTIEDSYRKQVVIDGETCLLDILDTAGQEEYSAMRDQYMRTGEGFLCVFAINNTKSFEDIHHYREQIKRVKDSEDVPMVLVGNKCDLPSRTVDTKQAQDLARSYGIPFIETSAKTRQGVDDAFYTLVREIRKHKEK
KRas G12C, sequence (P01116 1-169 isoform P01116-2 G12C): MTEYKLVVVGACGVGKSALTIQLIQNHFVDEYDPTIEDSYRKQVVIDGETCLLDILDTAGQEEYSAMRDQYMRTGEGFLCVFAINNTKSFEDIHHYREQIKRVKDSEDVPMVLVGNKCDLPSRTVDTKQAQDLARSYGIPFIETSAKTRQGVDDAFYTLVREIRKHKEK

A word on the IC50: it is the concentration that inhibits the measured activity by half. For the molecule `NS(=O)(=O)CC1CCCN(c2nc(OCC34CCCN3CCC4)nc3c(F)c(-c4cccc5cccc(C(F)F)c45)ncc23)C1` (centres unmarked) [Example 463, 1-(1-(7-(8-(difluoromethyl)naphthalen-1-yl)-8-fluoro-2-((hexahydro-1H-pyrrolizin-7a-yl)methoxy)pyrido[4,3-d]pyrimidin-4-yl)piperidin-3-yl)methanesulfonamide], the IC50 amounted to 2400 nM against KRas WT; 2150 nM against KRas G12C; 1360 nM against KRas G12R; 1400 nM against KRas G12S; 1550 nM against KRas G12A; 3060 nM against KRas G12V. The same molecule displayed an IC50 on KRas G12D of 6490 nM.

For the molecule `O=C1NC2(CCCN(c3nc(OCC45CCCN4CCC5)nc4c(F)c(-c5cccc6cccc(F)c56)ncc34)C2)CO1` (centres unmarked) [Example 227, 7-(8-fluoro-7-(8-fluoronaphthalen-1-yl)-2-((hexahydro-1H-pyrrolizin-7a-yl)methoxy)pyrido[4,3-d]pyrimidin-4-yl)-3-oxa-1,7-diazaspiro[4.5]decan-2-one], the IC50 at KRas WT was determined as 3390 nM; against KRas G12C it was 2720 nM; against KRas G12R, 3060 nM; against KRas G12V, 2430 nM; on KRas G12D, 1240 nM.

Regarding `O=C1CC2(CCCN(c3nc(OCC45CCCN4CCC5)nc4c(F)c(-c5cccc6cccc(F)c56)ncc34)C2)CN1` (centres unmarked) [Example 20, 7-(8-fluoro-7-(8-fluoronaphthalen-1-yl)-2-((hexahydro-1H-pyrrolizin-7a-yl)methoxy)pyrido[4,3-d]pyrimidin-4-yl)-2,7-diazaspiro[4.5]decan-3-one], the IC50 was 2970 nM on KRas WT; 3180 nM against KRas G12C; 7390 nM on KRas G12R; 2980 nM against KRas G12S; 2780 nM on KRas G12A; 3400 nM at KRas G12V. The same molecule displayed an IC50 against KRas G12D of 2390 nM.

Regarding `O=C1NC(=O)C2(CCCCN(c3nc(OCC45CCCN4CCC5)nc4c(F)c(-c5cccc6cccc(F)c56)ncc34)C2)N1` (centres unmarked) [Example 267, 7-(8-fluoro-7-(8-fluoronaphthalen-1-yl)-2-((hexahydro-1H-pyrrolizin-7a-yl)methoxy)pyrido[4,3-d]pyrimidin-4-yl)-1,3,7-triazaspiro[4.6]undecane-2,4-dione], the IC50 on KRas WT worked out at 1560 nM; against KRas G12C it was 2250 nM; at KRas G12R it was 1720 nM; at KRas G12S, 2070 nM; at KRas G12A, 2500 nM; on KRas G12V, 1710 nM. Further, at KRas G12D, the IC50 is 4370 nM.

As to `O=S1(=O)CC(CNc2nc(OCC34CCCN3CCC4)nc3c(F)c(-c4cccc5cccc(CO)c45)ncc23)C1` [Example 443, 3-(((8-fluoro-2-((hexahydro-1H-pyrrolizin-7a-yl)methoxy)-7-(8-(hydroxymethyl)naphthalen-1-yl)pyrido[4,3-d]pyrimidin-4-yl)amino)methyl)thietane1,1-dioxide], the IC50 on KRas WT stood at 18800 nM; against KRas G12C it was 8200 nM; at KRas G12R, 6380 nM; against KRas G12S, 6310 nM; against KRas G12A, 8470 nM; against KRas G12V, 4210 nM. Besides, the IC50 at KRas G12D was found to be 53000 nM.

`CCc1c(F)ccc2cc(O)cc(-c3ncc4c(N5C[C@@H]6C(CO)NC(=O)[C@@H]6C5)nc(OC[C@@]56CCCN5C[C@H](F)C6)nc4c3F)c12` (stereo in doubt) [Example 488, (3R,3aR,6aS)-5-(7-(8-ethyl-7-fluoro-3-hydroxynaphthalen-1-yl)-8-fluoro-2-(((2R,7aS)-2-fluorotetrahydro-1H-pyrrolizin-7a(5H)-yl)methoxy)pyrido[4,3-d]pyrimidin-4-yl)-3-(hydroxymethyl)hexahydropyrrolo[3,4-c]pyrrol-1(2H)-one]: the IC50 in the test on pERK in PSN1 cells was no less than 10000 nM; against KRas G12R, 51 nM; in the test with pERK in MKN1 cells, no less than 10000 nM; in the test on pERK in ASPC1 cells it was no less than 10000 nM; at KRas G12V it was 27 nM; on KRas G12D, 22 nM.

For `CN(C)C(=O)n1cc2c(n1)CCCN(c1nc(OCC34CCCN3CCC4)nc3c(F)c(-c4cccc5cccc(F)c45)ncc13)C2` [Example 274, 5-(8-fluoro-7-(8-fluoronaphthalen-1-yl)-2-((hexahydro-1H-pyrrolizin-7a-yl)methoxy)pyrido[4,3-d]pyrimidin-4-yl)-N,N-dimethyl-5,6,7,8-tetrahydropyrazolo[4,3-c]azepine-2(4H)-carboxamide], the IC50 on KRas WT came to 14700 nM; at KRas G12R it was 2760 nM; against KRas G12V, 867 nM; against KRas G12D, 375 nM.

For the molecule `CS(=O)(=O)C1COCCN(c2nc(OCC34CCCN3CCC4)nc3c(F)c(-c4cccc5cccc(F)c45)ncc23)C1` (centres unmarked) [Example 271, 4-(8-fluoro-7-(8-fluoronaphthalen-1-yl)-2-((hexahydro-1H-pyrrolizin-7a-yl)methoxy)pyrido[4,3-d]pyrimidin-4-yl)-6-(methylsulfonyl)-1,4-oxazepane], the IC50 is 3000 nM against KRas WT, 7690 nM on KRas G12R, 2440 nM against KRas G12V and 2430 nM against KRas G12D.

On to `CC(Nc1nc(OCC23CCCN2CCC3)nc2c(F)c(-c3cccc4cccc(F)c34)ncc12)c1c[nH]c2ncccc12` (centres unmarked) [Example 229, N-(1-(1H-pyrrolo[2,3-b]pyridin-3-yl)ethyl)-8-fluoro-7-(8-fluoronaphthalen-1-yl)-2-((tetrahydro-1H-pyrrolizin-7a(5H)-yl)methoxy)pyrido[4,3-d]pyrimidin-4-amine], for which the IC50 is 36800 nM against KRas WT; 4720 nM at KRas G12C; 2120 nM against KRas G12R; 3120 nM at KRas G12V; 85300 nM at KRas G12D.

With `CCc1c(F)ccc2cc(O)cc(-c3ncc4c(N5CCC[C@](C)(O)C5)nc(OC[C@@]56CCCN5C[C@H](F)C6)nc4c3F)c12` [Example 4], in the test on pERK in PSN1 cells, the IC50 was no less than 10000 nM.

With `CCc1c(F)ccc2cc(O)cc(-c3ncc4c(NCCN5CCNC5=O)nc(OC[C@@]56CCCN5C[C@H](F)C6)nc4c3F)c12` [Example 372, 1-(2-((7-(8-ethyl-7-fluoro-3-hydroxynaphthalen-1-yl)-8-fluoro-2-(((2R,7aS)-2-fluorotetrahydro-1H-pyrrolizin-7a(5H)-yl)methoxy)pyrido[4,3-d]pyrimidin-4-yl)amino)ethyl)imidazolidin-2-one], the IC50 in the test with pERK in PSN1 cells was no less than 10000 nM; against KRas G12R, 13 nM; with pERK in MKN1 cells, 660 nM; on KRas G12V it was 5 nM; at KRas G12D, 56 nM.

Consider `NC(=O)C1COCCN(c2nc(OCC34CCCN3CCC4)nc3c(F)c(-c4cccc5cccc(F)c45)ncc23)C1` (centres unmarked) [Example 270, 4-(8-fluoro-7-(8-fluoronaphthalen-1-yl)-2-((hexahydro-1H-pyrrolizin-7a-yl)methoxy)pyrido[4,3-d]pyrimidin-4-yl)-1,4-oxazepane-6-carboxamide], for which the IC50 was 4190 nM on KRas WT; 2830 nM against KRas G12C; 7590 nM against KRas G12R; 2100 nM on KRas G12V; 2630 nM on KRas G12D.

With `Cc1c(N)nn2c1CN(c1nc(OCC34CCCN3CCC4)nc3c(F)c(-c4cccc5cccc(F)c45)ncc13)CCC2` [Example 278, 5-(8-fluoro-7-(8-fluoronaphthalen-1-yl)-2-((hexahydro-1H-pyrrolizin-7a-yl)methoxy)pyrido[4,3-d]pyrimidin-4-yl)-3-methyl-5,6,7,8-tetrahydro-4H-pyrazolo[1,5-a][1,4]diazepin-2-amine], the IC50 stood at 3670 nM at KRas WT, 1860 nM on KRas G12R, 1990 nM at KRas G12V and 801 nM at KRas G12D.

On to `CCc1c(F)ccc2cc(O)cc(-c3ncc4c(NC[C@H]5COC[C@H]5O)nc(OC[C@@]56CCCN5C[C@H](F)C6)nc4c3F)c12` (single isomer, unassigned) [Example 492], for which the concentration for half-maximal inhibition (IC50) in the test with pERK in PSN1 cells was no less than 10000 nM; against KRas G12R, 14 nM; in the test with pERK in MKN1 cells, 254 nM; with pERK in ASPC1 cells it was 3520 nM; against KRas G12V, 15 nM; against KRas G12D, 84 nM.

Turning to `CCc1c(F)ccc2cc(O)cc(-c3ncc4c(NC[C@@H]5COC[C@@H]5O)nc(OC[C@@]56CCCN5C[C@H](F)C6)nc4c3F)c12` (single isomer, unassigned) [Example 493], the 50% inhibitory concentration (IC50) is no less than 10000 nM with pERK in PSN1 cells; 9 nM against KRas G12R; 622 nM in the test with pERK in MKN1 cells; no less than 10000 nM in the test with pERK in ASPC1 cells; 11 nM against KRas G12V; 130 nM on KRas G12D.

Turning to `Fc1c(-c2cccc3cccc(F)c23)ncc2c(N3CCCC4(CSC4)C3)nc(OCC34CCCN3CCC4)nc12` [Example 262, 6-(8-fluoro-7-(8-fluoronaphthalen-1-yl)-2-((hexahydro-1H-pyrrolizin-7a-yl)methoxy)pyrido[4,3-d]pyrimidin-4-yl)-2-thia-6-azaspiro[3.5]nonane], the IC50 against KRas WT amounted to 1530 nM; on KRas G12R, 1660 nM; on KRas G12V, 1790 nM; at KRas G12D it was 960 nM.
